Data from US11851411B2, “Herbicidal compounds” (SYNGENTA CROP PROTECTION AG, priority 2018, dated 2023).

Tests used:
Type in all cases: in vivo
[1] = test system: Echinochloa crus-galli (ECHCG); assay: Glasshouse herbicide test, post-emergence; conditions: POST Application; 500 g/h; evaluated after 13 days
Protocol: (§1) Seeds of a variety of test species are shown in standard soil in pots (Lolium perenne (LOLPE), Amaranthus retoflexus (AMARE), Abutilon theophrasti (ABUTH), Setaria faberi (SETFA), Echinochloa crus-galli (ECHCG), Ipomoea hederacea (IPOHE)). After cultivation for one day (pre-emergence) or after 8 days cultivation (post-emergence) under controlled conditions in a glasshouse (at 24/16° C., day/night; 14 hours light; 65% humidity), the plants are sprayed with an aqueous spray solution derived from the formulation of the technical active ingredient in acetone/water (50:50) solution containing 0.5% Tween 20 (polyoxyethelyene sorbitan monolaurate, CAS RN 9005-64-5). Compounds are applied at 500 g/h. The test plants are then grown in a glasshouse under controlled conditions in a glasshouse (at 24/16° C., day/night; 14 hours light; 65% humidity) and watered twice daily. After 13 days for pre and post-emergence, the test is evaluated for the percentage damage caused to the plant. The biological activities are shown in the following table on a five point scale (5=80-100%; 4=60-79%; 3=40-59%; 2=20-39%; 1=0-19%).

[2] = test system: Amaranthus retoflexus (AMARE); assay: Glasshouse herbicide test, post-emergence; conditions: POST Application; 500 g/h; evaluated after 13 days
Protocol: as §1

[3] = test system: Abutilon theophrasti (ABUTH); assay: Glasshouse herbicide test, post-emergence; conditions: POST Application; 500 g/h; evaluated after 13 days
Protocol: as §1

[4] = test system: Ipomoea hederacea (IPOHE); assay: Glasshouse herbicide test, post-emergence; conditions: POST Application; 500 g/h; evaluated after 13 days
Protocol: as §1

Setaria faberi (SETFA) [5] = assay: Glasshouse herbicide test, post-emergence; conditions: POST Application; 500 g/h; evaluated after 13 days
Protocol: as §1

[6] = test system: Amaranthus retroflexus (AMARE); assay: Comparative experiment, post-emergence phytotoxicity; conditions: POST Application; Rate 125 g/ha
Protocol: (§2) A comparative experiment is conducted to show the advantage provided by the compounds of the present invention. Thus the biological performance of representative compounds 1.001, 1.043, 2.002 & 2.024 of the present invention are compared with Compound C1, which is an aniline compound of the type referred to in WO2012/028579. Results are given as (%) phytotoxicity observed.

Setaria faberi (SETFA) [7] = assay: as above; conditions: POST Application; Rate 125 g/ha
Protocol: as §2

[8] = test system: Echinochloa crus-galli (ECHCG); assay: Glasshouse herbicide test, pre-emergence; conditions: PRE Application; 500 g/h; evaluated after 13 days
Protocol: as §1

[9] = test system: Amaranthus retoflexus (AMARE); assay: Glasshouse herbicide test, pre-emergence; conditions: PRE Application; 500 g/h; evaluated after 13 days
Protocol: as §1

[10] = test system: Abutilon theophrasti (ABUTH); assay: Glasshouse herbicide test, pre-emergence; conditions: PRE Application; 500 g/h; evaluated after 13 days
Protocol: as §1

[11] = test system: Ipomoea hederacea (IPOHE); assay: Glasshouse herbicide test, pre-emergence; conditions: PRE Application; 500 g/h; evaluated after 13 days
Protocol: as §1

Setaria faberi (SETFA) [12] = assay: Glasshouse herbicide test, pre-emergence; conditions: PRE Application; 500 g/h; evaluated after 13 days
Protocol: as §1

SMILES | percentage damage caused to the plant, five point scale, ECHCG [1] | percentage damage caused to the plant, five point scale, AMARE [2] | percentage damage caused to the plant, five point scale, ABUTH [3] | percentage damage caused to the plant, five point scale, IPOHE [4] | percentage damage caused to the plant, five point scale, SETFA (Setaria faberi (SETFA) [5]) | (%) phytotoxicity observed, AMARE [6] [%] | (%) phytotoxicity observed, SETFA (Setaria faberi (SETFA) [7]) [%] | percentage damage caused to the plant, five point scale, ECHCG [8] | percentage damage caused to the plant, five point scale, AMARE [9] | percentage damage caused to the plant, five point scale, ABUTH [10] | percentage damage caused to the plant, five point scale, IPOHE [11] | percentage damage caused to the plant, five point scale, SETFA (Setaria faberi (SETFA) [12])
CON(C(C)=O)c1c(C(F)(F)F)ccc(C(=O)Nc2nnnn2C)c1Cl [Compound 1.001, 3-[acetyl(methoxy)amino]-2-chloro-N-(1-methyltetrazol-5-yl)-4-(trifluoromethyl)benzamide] | 5 (5=80-100%) | 5 (5=80-100%) | 5 (5=80-100%) | 5 (5=80-100%) | 5 (5=80-100%) | 90 | 90 | 5 (5=80-100%) | 5 (5=80-100%) | 5 (5=80-100%) | 5 (5=80-100%) | 5 (5=80-100%)
CON(C)c1c(S(C)(=O)=O)ccc(C(=O)Nc2nnnn2C)c1Cl [Compound 1.043, 2-chloro-3-[methoxy(methyl)amino]-4-methylsulfonyl-N-(1-methyltetrazol-5-yl)benzamide] | 5 (5=80-100%) | 5 (5=80-100%) | 5 (5=80-100%) | 5 (5=80-100%) | 5 (5=80-100%) | 100 | 90 | 5 (5=80-100%) | 5 (5=80-100%) | 5 (5=80-100%) | 5 (5=80-100%) | 5 (5=80-100%)
CON(C(C)=O)c1c(C(F)(F)F)ccc(C(=O)Nc2nnc(C)o2)c1Cl [Compound 2.001] | 5 (5=80-100%) | 5 (5=80-100%) | 5 (5=80-100%) | 5 (5=80-100%) | 5 (5=80-100%) | – | – | 5 (5=80-100%) | 5 (5=80-100%) | 5 (5=80-100%) | 4 (4=60-79%) | 5 (5=80-100%)
CON(C(C)=O)c1c(C(F)(F)F)ccc(C(=O)Nc2nnc(C)o2)c1C [Compound 2.002] | 5 (5=80-100%) | 5 (5=80-100%) | 5 (5=80-100%) | 5 (5=80-100%) | 5 (5=80-100%) | 50 | 90 | 5 (5=80-100%) | 5 (5=80-100%) | 5 (5=80-100%) | 5 (5=80-100%) | 5 (5=80-100%)
CON(C(=O)OC(C)(C)C)c1c(C(F)(F)F)ccc(C(=O)Nc2nnc(C)o2)c1Cl [Compound 2.009, tert-butyl N-[2-chloro-3-[(5-methyl-1,3,4-oxadiazol-2-yl)carbamoyl]-6-(trifluoromethyl)phenyl]-N-methoxy-carbamate] | 5 (5=80-100%) | 3 (3=40-59%) | 3 (3=40-59%) | 3 (3=40-59%) | 5 (5=80-100%) | – | – | 5 (5=80-100%) | 5 (5=80-100%) | 3 (3=40-59%) | 1 (1=0-19%) | 2 (2=20-39%)
CCC(=O)N(OC)c1c(C(F)(F)F)ccc(C(=O)Nc2nnc(C)o2)c1Cl [Compound 2.018] | 5 (5=80-100%) | 5 (5=80-100%) | 5 (5=80-100%) | 5 (5=80-100%) | 5 (5=80-100%) | – | – | 5 (5=80-100%) | 5 (5=80-100%) | 5 (5=80-100%) | 4 (4=60-79%) | 5 (5=80-100%)
CCCON(C)c1c(S(C)(=O)=O)ccc(C(=O)Nc2nnc(C)o2)c1Cl [Compound 2.024] | 5 (5=80-100%) | 5 (5=80-100%) | 5 (5=80-100%) | 5 (5=80-100%) | 5 (5=80-100%) | 80 | 80 | 5 (5=80-100%) | 5 (5=80-100%) | 5 (5=80-100%) | 5 (5=80-100%) | 5 (5=80-100%)
Cn1nnnc1NC(=O)c1ccc(C(F)(F)F)c(N)c1Cl [Compound C1, reference compound] | – | – | – | – | – | 10 | 20 | – | – | – | – | –
